From publication PMC4583475, “Receptor Polymorphism and Genomic Structure Interact to Shape Bitter Taste Perception” (PLoS Genetics, 2015)

What was measured:
[1] = tested on: bitter taste perception of 48 Caucasian subjects; assay: Human psychophysical bitter taste tests (4-AFC recognition thresholds, gLMS intensity ratings); type: in vivo; conditions: for recognition threshold, fold range across subjects: 48 human subjects
Procedure: All were pre-screened to avoid inclusion of individuals with health problems and overt taste pathologies; pregnant and breast-feeding women were also excluded. Each subject participated in the entire course of the study, which included one training session and nine experimental sessions. Visits consisted of DNA collection and psychophysical tests for genotyping and phenotypic analyses, respectively. General taste abilities were also assessed for the bitter, salty, sour, and sweet taste during the first session.
Experiments were conducted at the sensory analysis laboratory of the German Institute of Human Nutrition Potsdam-Rehbruecke, according to good practice guidelines. […] Perceived bitter taste intensities were rated on the general Labelled Magnitude Scale (gLMS; [72–74]). […] For each 4-AFC test, four coded samples containing 10 ml solution were presented simultaneously; one containing the bitter tastant diluted in mineral water (Evian; Danone, Paris, France) and three containing mineral water only. At each concentration, subjects were challenged to identify the different sample, specify whether the quoted sample tasted bitter, and rate the perceived bitter intensity. Tests were performed with nose clips and oral rinsing, with a 45 s pause between concentrations. Training sessions were first used to familiarize subjects with the experimental procedures, and secondly, to assess general taste abilities. Concentration series consisted of geometric sequences of […], with a 1.5 common ratio and the following concentration ranges: 3.5x10^-5–2.0x10^-3M, 6.9x10^-4–4.0x10^-2 M, 2.6x10^-4–1.5x10^-2 M, 6.9x10^-4–4.0x10^-2 M, for salicin, sodium chloride, citric acid, and sucrose used as reference tastants for bitter, salty, sour, and sweet taste, respectively. Following training, subjects tested each tastant in triplicate over nine sessions. Latin square designs extended for first-order carry-over effects were used to counterbalance presentation order of the test compounds over the test sessions, across subjects and for each test compound, as well as presentation order of the samples at each concentration across both repetitions and subjects. Sensory sessions were monitored and data automatically collected (Fizz; Biosystèmes, Couternon, France).
Detection and recognition probabilities of the bitter samples were analysed per repetition and subject. Relationships between probabilities (detection or recognition probabilities) and concentrations were fitted by a logistic regression model using the maximum-likelihood method. Threshold value and slope of the logistic curves were then obtained per repetition and subject, using a self-implemented toolbox (Matlab; The MathWorks Inc.). […] Where required, outliers were discarded according to the Peirce’s criterion. Perceived intensities, expressed in percentage of the scale length, were analysed similarly.

[2] = tested on: TAS2R30-H1; assay: Calcium imaging in HEK 293T Gα16gust44 cells transfected with TAS2R30-H1; type: cell-based, human
From the text: (§1) Allelic responses to agonists were quantified using in vitro heterologous expression assays designed in previous studies of TAS2R receptor function, which successfully mimic responses in vivo with respect to both magnitude and concentration range [17, 23, 25, 26, 46]. DNA fragments containing TAS2R coding sequences were first amplified from genomic DNA by PCR using a proofreading polymerase (PfuUltra II Fusion HotStart DNA Polymerase; Agilent Technologies, Santa Clara, CA, USA) and cloned into a plasmid vector according to the manufacturer’s protocol (Zero Blunt TOPO PCR Cloning Kit; Life Technologies). A second PCR was performed using specific cloning primers to facilitate subcloning into the expression vector, which was then modified to add an N-terminal signal for cell surface localisation and a C-terminal epitope for immunocytochemical detection to the receptor sequence (Fast Link DNA Ligation Kit; Epicentre, Illumina Inc., Madison, WI, USA) (pcDNA5/FRT Mammalian Expression Vector; Life Technologies). Empty vector was used as a negative control.
(§2) Functional assays were carried out in HEK 293T cells stably expressing the G protein chimera Gα16gust44 and transiently transfected with TAS2R alleles subcloned into the expression vector [78]. Calcium imaging was performed using an automated fluorometric imaging plate reader by exposing transfected cells to test compounds dissolved in assay buffer or to assay buffer alone (FLIPR Tetra; Molecular Devices, LLC, Sunnyvale, CA, USA). Changes in cytosolic calcium levels were monitored by measuring fluorescence intensity of a calcium-sensitive dye previously added (Fluo-4 AM; Life Technologies). Six replicates were carried out for each bitter stimulus, on separate experimental days, with each replicate consisting of concentration series of each bitter tastant.
(§3) Prior to final analysis, fluorescence data from functional assays, expressed in relative fluorescence units (RFU), underwent three corrections. First, a correction calculated from baseline values was applied to compensate for well-to-well fluctuations. A second correction calculated from negative control values was applied to correct for receptor independent artefacts and signal drift. A third correction calculated from positive control values was applied to facilitate comparison of data obtained from different experimental days. Fluorescence ratios ((F-F0)/F0), obtained by subtracting the background fluorescence from fluorescence peak height and then dividing the difference by the background fluorescence, were then used for data analysis. Variance analyses were performed, followed by Bonferroni multiple comparisons tests (SPSS 20; IBM Corporation, Armonk, NY, USA). Threshold response values were then defined as the first concentration eliciting a significant activation of the receptor, with empty vector acting as a negative control. Finally, dose-response curves were fitted to the Hill equation by nonlinear regression in order to determine half maximal effective concentrations (EC50) and maximal amplitude (SigmaPlot; Systat Software Inc., Chicago, IL, USA).

[3] = molecular target: T1, TAS2R46-H1 (Homo sapiens, UniProt P59540); assay: Calcium imaging in HEK 293T Gα16gust44 cells transfected with TAS2R46-H1; type: cell-based
T1 construct: N-terminal signal for cell surface localisation (N); expressed in transfected cells; host or cells: HEK 293T cells stably expressing the G protein chimera Gα16gust44
T1 sequence (P59540 1-309): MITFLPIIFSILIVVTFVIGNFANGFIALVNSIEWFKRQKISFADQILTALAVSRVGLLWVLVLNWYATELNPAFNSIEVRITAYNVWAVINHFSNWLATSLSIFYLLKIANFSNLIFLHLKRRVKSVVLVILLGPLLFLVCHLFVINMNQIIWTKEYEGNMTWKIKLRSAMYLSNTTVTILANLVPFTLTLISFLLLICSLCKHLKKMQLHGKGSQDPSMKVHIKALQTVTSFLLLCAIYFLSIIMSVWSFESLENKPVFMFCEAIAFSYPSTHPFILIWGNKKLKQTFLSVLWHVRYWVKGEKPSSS
From the text: as §1, §2, §3

[4] = molecular target: T2, TAS2R46-H2 (Homo sapiens, UniProt P59540); assay: Calcium imaging in HEK 293T Gα16gust44 cells transfected with TAS2R46-H2; type: cell-based; conditions: TAS2R46-H2, truncated variant (premature stop codon)
T2 construct: TAS2R46-H2, a truncated, six-transmembrane variant of the receptor; N-terminal signal for cell surface localisation (N); expressed in transfected cells; host or cells: HEK 293T cells stably expressing the G protein chimera Gα16gust44
T2 sequence (P59540 1-249 limits assumed): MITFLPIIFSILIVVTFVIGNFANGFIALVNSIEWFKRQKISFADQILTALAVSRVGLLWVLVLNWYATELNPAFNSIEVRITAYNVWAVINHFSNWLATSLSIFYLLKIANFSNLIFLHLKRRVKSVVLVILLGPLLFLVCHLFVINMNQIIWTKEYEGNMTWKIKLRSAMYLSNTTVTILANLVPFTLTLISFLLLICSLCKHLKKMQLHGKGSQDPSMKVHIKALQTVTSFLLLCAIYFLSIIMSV
From the text: as §1, §2, §3

[5] = tested on: TAS2R46-H3; assay: Calcium imaging in HEK 293T Gα16gust44 cells transfected with TAS2R46-H3; type: cell-based, human
From the text: as §1, §2, §3

[6] = tested on: TAS2R30, -31, -43, and -46; assay: Calcium imaging functional assays, statements across TAS2R loci (variants not resolved); type: cell-based, human
From the text: as §1
as §2, with “Six replicates were carried out for each bitter stimulus, on separate experimental days, with each replicate consisting of concentration series of each bitter tastant.” left out
Prior to final analysis, fluorescence data from functional assays, expressed in relative fluorescence units (RFU), underwent three corrections. First, a correction calculated from baseline values was applied to compensate for well-to-well fluctuations. A second correction calculated from negative control values was applied to correct for receptor independent artefacts and signal drift. […]

[7] = tested on: TAS2R43-H1; assay: Calcium imaging in HEK 293T Gα16gust44 cells transfected with TAS2R43-H1; type: cell-based, human
From the text: as §1, §2
as §3, with “Threshold response values were then defined as the first concentration eliciting a significant activation of the receptor, with empty vector acting as a negative control. Finally, dose-response curves were fitted to the Hill equation by nonlinear regression in order to determine half maximal effective concentrations (EC50) and maximal amplitude (SigmaPlot; Systat Software Inc., Chicago, IL, USA).” left out

[8] = tested on: TAS2R43-H2; assay: Calcium imaging in HEK 293T Gα16gust44 cells transfected with TAS2R43-H2; type: cell-based, human
From the text: as §1, §2
as §3, with “Threshold response values were then defined as the first concentration eliciting a significant activation of the receptor, with empty vector acting as a negative control. Finally, dose-response curves were fitted to the Hill equation by nonlinear regression in order to determine half maximal effective concentrations (EC50) and maximal amplitude (SigmaPlot; Systat Software Inc., Chicago, IL, USA).” left out

[9] = tested on: every known TAS2R in humans; design: method as in PMID 20022913; conditions: complete TAS2R family; cited from earlier work
[10] = tested on: TAS2R31-H1; assay: Calcium imaging in HEK 293T Gα16gust44 cells transfected with TAS2R31-H1; type: cell-based, human
From the text: (§4) Allelic responses to agonists were quantified using in vitro heterologous expression assays designed in previous studies of TAS2R receptor function, which successfully mimic responses in vivo with respect to both magnitude and concentration range [17, 23, 25, 26, 46]. DNA fragments containing TAS2R coding sequences were first amplified from genomic DNA by PCR using a proofreading polymerase (PfuUltra II Fusion HotStart DNA Polymerase; Agilent Technologies, Santa Clara, CA, USA) and cloned into a plasmid vector according to the manufacturer’s protocol (Zero Blunt TOPO PCR Cloning Kit; Life Technologies). […]
as §2, with “Six replicates were carried out for each bitter stimulus, on separate experimental days, with each replicate consisting of concentration series of each bitter tastant.” left out
(§5) Prior to final analysis, fluorescence data from functional assays, expressed in relative fluorescence units (RFU), underwent three corrections. […]

[11] = tested on: TAS2R31-H2; assay: Calcium imaging in HEK 293T Gα16gust44 cells transfected with TAS2R31-H2; type: cell-based, human
From the text: as §4
as §2, with “Six replicates were carried out for each bitter stimulus, on separate experimental days, with each replicate consisting of concentration series of each bitter tastant.” left out
as §5

[12] = tested on: TAS2R31-H3; assay: Calcium imaging in HEK 293T Gα16gust44 cells transfected with TAS2R31-H3; type: cell-based, human
From the text: as §4
as §2, with “Six replicates were carried out for each bitter stimulus, on separate experimental days, with each replicate consisting of concentration series of each bitter tastant.” left out
as §5

[13] = tested on: TAS2R31-H4; assay: Calcium imaging in HEK 293T Gα16gust44 cells transfected with TAS2R31-H4; type: cell-based, human
From the text: as §4
as §2, with “Six replicates were carried out for each bitter stimulus, on separate experimental days, with each replicate consisting of concentration series of each bitter tastant.” left out
as §5

[14] = first concentration eliciting significant receptor activation

## COC1=C[C@@H](C)[C@@H]2C[C@H]3OC(=O)C[C@H]4C(C)=C(OC)C(=O)[C@H]([C@@]2(C)C1=O)[C@@]34C [quassin]
[1]
  recognition threshold, fold range across subjects: 38 fold
[1]; gLMS strong intensity
  concentration perceived as strongly bitter, fold range across subjects: 8 fold
[1]; gLMS weak intensity
  concentration perceived as weakly bitter, fold range across subjects: 26 fold
[2]
  receptor variant response: responding in ranges matching phenotypic recognition threshold
[3]
  receptor variant response: most sensitive
[4]
  receptor variant response: least sensitive
[5]
  receptor variant response: intermediate
[6]
  TAS2Rs activated in vitro: only TAS2R30 and TAS2R46

## C=C1C(=O)O[C@H]2[C@H]1[C@@H](O)CC(=C)[C@@H]1CC(=O)[C@@H](C)[C@H]21 [grosheimin]
[1]
  recognition threshold, fold range across subjects: 25 fold
[1]; gLMS strong intensity
  concentration perceived as strongly bitter, fold range across subjects: 5 fold
  concentration perceived as strongly bitter, mode: 33 µM
[1]; gLMS weak intensity
  concentration perceived as weakly bitter, fold range across subjects: 17 fold
  concentration perceived as weakly bitter, mode: 15 µM
[7]
  EC50: 16 µM
  maximum amplitude: 0.60 ΔF/F
[7]; [14]
  threshold: 10 µM
[8]
  EC50: 6.9 µM
  maximum amplitude: 0.81 ΔF/F
[8]; [14]
  threshold: 3 µM
[3]
  EC50: 5.6 µM
  maximum amplitude: 0.87 ΔF/F
[3]; [14]
  threshold: 1000 nM
[4]
  receptor variant response: not activated at any concentration
[5]
  EC50: 7.6 µM
  maximum amplitude: 0.50 ΔF/F
[5]; [14]
  threshold: 3 µM
[9]
  TAS2Rs responsive in published receptor-agonist inventory: only TAS2R43 and -46

## C=C[C@H]1C[N@@]2CC[C@H]1C[C@H]2[C@H](O)c1ccnc2ccc(OC)cc12 [quinine]
[10]
  receptor variant response: intermediates
[11]
  receptor variant response: sensitive
[12]
  receptor variant response: insensitive
[13]
  receptor variant response: intermediates
